This experiment deals with Rat heart mitochondria (palmitoyl CoA oxidation). As to the kind of experiment: Mitochondrial assay: palmitoyl CoA oxidation. The class given is biochemical. The conditions noted are these: at 100 μM of test compound, 1-C14 palmitoyl CoA oxidation, 15 min at 30° C. The procedure:
Rat heart mitochondria were isolated by the method of Nedergard and Cannon (Methods in Enzymol. 55, 3, 1979).
Palmitoyl CoA oxidation—The Palmityl CoA oxidation was carried out in a total volume of 100 micro liters containing the following agents: 110 mM KCl, 33 mM Tris buffer at pH 8, 2 mM KPi, 2 mM MgCl2, 0.1 mM EDTA, 14.7 microM defatted BSA, 0.5 mM malic acid, 13 mM carnitine, 1 mM ADP, 52 micrograms of mitochondrial protein, and 16 microM 1-C14 palmitoyl CoA (Sp. Activity 60 mCi/mmole; 20 microCi/ml, using 5 microliters per assay). The compounds of this invention were added in a DMSO solution at the following concentrations: 100 micro molar, 30 micro molar, and 3 micro molar. In each assay, a DMSO control was used. After 15 min at 30° C., the enzymatic reaction was centrifuged (20,000 g for 1 min), and 70 microliters of the supernatant was added to an activated reverse phase silicic acid column (approximately 0.5 ml of silicic acid). The column was eluted with 2 ml of water, and 0.5 ml of the eluent was used for scintillation counting to determine the amount of C^14 trapped as C^14 bicarbonate ion.

Regarding `Cc1cccc(C)c1NC(=O)CN1CCN(CC(O)CC2CCCCC2)CC1` (stereo not drawn) [N-(2,6-dimethylphenyl)-2-[4-(3-cyclohexyl-2-hydroxypropyl)piperazinyl]acetamide], the Inhibition stood at 8%.
The same measure for `Cc1cccc(C)c1NC(=O)CN1CCN(CC(O)CNC(=O)c2ccccc2F)CC1` (stereo not drawn) [N-(2,6-dimethylphenyl)-2-(4-{3-[(2-fluorophenyl)carbonylamino]-2-hydroxypropyl}piperazinyl)acetamide]: 24%; for `Cc1cccc(C)c1NC(=O)CN1CCN(CC(O)CC(=O)Nc2ccccc2F)CC1` (stereo not drawn) [4-(4-{[N-(2,6-dimethylphenyl)carbamoyl]methyl}piperazinyl)-3-hydroxy-N-(2-fluorophenyl)butanamide]: 36%.

These data come from patent publication US7566717B2, “Substituted heterocyclic compounds” (Gilead Sciences, Inc., priority 2003, dated 2009).
